In general, pIC50 refers to the IC50 on a negative log10 scale, so that one unit is a factor of ten. A word on the DC50: it is the midpoint of the concentration-degradation curve.

pIC50: −log10 of the molar value.

Consider eleven compounds from ChEMBL document CHEMBL5223078, “Proteases and Their Modulators in Cancer Therapy: Challenges and Opportunities” (J Med Chem, 2021).

The target in experiment [1] is 20S proteasome. Put plainly: Inhibition of 20S proteasome (unknown origin). It is filed as protein-complex assay, Homo sapiens.
The test system of experiment [2] is SUM-159-PT. Put plainly: Cytotoxicity against human SUM159PT cells assessed as cell growth inhibition measured after 72 hrs by MTS assay. In kind it is functional, cell-based. A general note: Tetrazolium dyes change colour on reduction, which living cells bring about.
Experiment [3] in a line: Cytotoxicity against human TEX cells assessed as cell growth inhibition measured after 72 hrs by spectrophotometry. It is filed as functional, cell-based.
Experiment [4] deals with OCI-AML2. The experiment is described as follows: Cytotoxicity against human OCI-AML2 cells assessed as cell growth inhibition measured after 72 hrs by spectrophotometry. In kind it is functional, cell-based. Particulars: OCI-AML2, 72 h.
Experiment [5] deals with OCI-AML-3. Put plainly: Cytotoxicity against human OCI-AML-3 cells assessed as cell growth inhibition measured after 72 hrs by spectrophotometry. In kind it is functional, cell-based. Particulars: OCI-AML-3, 72 h.
Experiment [6] concerns HCT-116. Put plainly: Antiproliferative activity against human HCT-116 cells assessed as reduction in cell viability at 200 nm measured after 72 hrs by MTS assay relative to control. In kind it is functional.
Experiment [7] relates to SUM-159-PT. Put plainly: Inhibition of colony formation in human SUM159PT assessed as complete inhibition of cell growth measured after 48 hrs by crystal violet staining based analysis. In kind it is functional.
For experiment [8], the target named is Protein cereblon/Tyrosine-protein kinase BTK (Homo sapiens, UniProt Q06187+Q96SW2, C481S). Put plainly: Protac activity at CRBN (unknown origin)/BTK C481S mutant (unknown origin) assessed as BTK C481S mutant degradation. It is filed as protein assay.
The test system of experiment [9] is MDA-MB-231. Put plainly: Antitumor activity against human MDA-MB-231 cells xenografted in mouse model assessed as reduction in ERRalpha level in mouse heart at 100 mg/kg, ip administered 3 times a day relative to control. In kind it is functional. Further details: scale not given: the % may be the effect or the level left. In general terms: A xenograft is tissue or cells of one species grown in another, often human tumour cells in immunodeficient mice.

In experiment [10] the test system is MDA-MB-231. The experiment is described as follows: Antitumor activity against human MDA-MB-231 cells xenografted in mouse model assessed as reduction in ERRalpha level in mouse kidney at 100 mg/kg, ip administered 3 times a day relative to control. In kind it is functional. Further details: scale not given: the % may be the effect or the level left.
Experiment [11] deals with MDA-MB-231. The experiment is described as follows: Antitumour activity against human MDA-MB-231 cells xenografted in mouse model assessed as reduction in ERRalpha level of tumor growth at 100 mg/kg, ip administered 3 times a day relative to control. Further details: scale not given: the % may be the effect or the level left. It is filed as functional.
The target in experiment [12] is von Hippel-Lindau disease tumor suppressor/GTPase KRas (Homo sapiens, UniProt P01116+P40337). Put plainly: Protac activity at VHL E3 ligase/KRAS G12 degradation in human MDA-MB-231 cells assessed as […] by western blot analysis. In kind it is cell-based.
Sequence of von Hippel-Lindau disease tumor suppressor/GTPase KRas (P01116 whole entry): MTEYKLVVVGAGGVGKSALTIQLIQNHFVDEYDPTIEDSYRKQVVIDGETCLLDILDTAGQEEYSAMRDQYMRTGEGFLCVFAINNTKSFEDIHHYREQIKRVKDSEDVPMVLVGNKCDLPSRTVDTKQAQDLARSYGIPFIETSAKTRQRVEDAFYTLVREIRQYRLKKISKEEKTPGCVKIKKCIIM
Sequence of von Hippel-Lindau disease tumor suppressor/GTPase KRas (P40337 whole entry): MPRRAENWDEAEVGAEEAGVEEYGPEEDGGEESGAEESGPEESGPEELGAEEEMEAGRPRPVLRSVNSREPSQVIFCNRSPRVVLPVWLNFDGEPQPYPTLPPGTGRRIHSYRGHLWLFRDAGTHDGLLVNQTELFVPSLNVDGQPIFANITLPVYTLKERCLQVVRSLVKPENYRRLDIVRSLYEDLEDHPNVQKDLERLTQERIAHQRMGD

Sequence of Protein cereblon/Tyrosine-protein kinase BTK (Q06187 2-659 C481S limits assumed, stated change not applied): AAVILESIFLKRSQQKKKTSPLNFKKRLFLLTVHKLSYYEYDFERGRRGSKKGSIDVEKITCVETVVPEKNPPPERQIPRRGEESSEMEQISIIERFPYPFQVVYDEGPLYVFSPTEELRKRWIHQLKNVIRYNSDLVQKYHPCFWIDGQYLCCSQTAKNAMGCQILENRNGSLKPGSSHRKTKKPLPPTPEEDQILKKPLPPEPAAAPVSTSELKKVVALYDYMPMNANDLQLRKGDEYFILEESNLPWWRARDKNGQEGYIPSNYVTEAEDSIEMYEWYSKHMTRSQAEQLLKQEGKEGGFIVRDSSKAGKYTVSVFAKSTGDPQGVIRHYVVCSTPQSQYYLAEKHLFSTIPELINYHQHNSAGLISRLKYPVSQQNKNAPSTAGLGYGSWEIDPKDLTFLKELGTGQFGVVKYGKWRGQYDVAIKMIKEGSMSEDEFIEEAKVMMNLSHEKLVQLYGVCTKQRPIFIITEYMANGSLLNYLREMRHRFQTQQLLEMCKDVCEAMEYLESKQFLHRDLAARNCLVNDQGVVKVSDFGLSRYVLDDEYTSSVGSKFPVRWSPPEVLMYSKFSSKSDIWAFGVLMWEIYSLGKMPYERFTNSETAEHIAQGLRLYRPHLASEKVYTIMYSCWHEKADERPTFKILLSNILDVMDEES
Sequence of Protein cereblon/Tyrosine-protein kinase BTK (Q96SW2 whole entry, stated change not applied): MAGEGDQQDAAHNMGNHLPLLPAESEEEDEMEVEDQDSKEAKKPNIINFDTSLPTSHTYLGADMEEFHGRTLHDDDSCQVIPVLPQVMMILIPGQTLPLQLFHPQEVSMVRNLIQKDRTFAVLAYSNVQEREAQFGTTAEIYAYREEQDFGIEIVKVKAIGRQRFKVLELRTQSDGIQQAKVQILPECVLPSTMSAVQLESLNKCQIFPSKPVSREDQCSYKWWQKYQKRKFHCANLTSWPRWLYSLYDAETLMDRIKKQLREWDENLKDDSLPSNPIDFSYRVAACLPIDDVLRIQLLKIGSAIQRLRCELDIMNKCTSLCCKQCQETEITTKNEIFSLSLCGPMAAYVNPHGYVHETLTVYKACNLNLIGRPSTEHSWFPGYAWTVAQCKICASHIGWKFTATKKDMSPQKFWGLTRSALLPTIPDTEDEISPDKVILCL

In experiment [1], `CC[C@H]1C(=O)NC2([C@@H](O)[C@@H]3C=CCCC3)C(=O)O[C@@H]12` (stereo partly drawn) showed a pIC50 of 7.05.
On to `N#Cc1cccc(CN2CCC3=C(C2)C(=O)N(Cc2ccc(C(F)(F)F)cc2)C2=NCCN23)c1`, for which, in experiment [2], the negative logarithm of the IC50 (pIC50) was 7.96.
Regarding `O=C1C2=C(CCN(Cc3ccccc3)C2)N2CCN=C2N1Cc1ccc(C(F)(F)F)cc1`, the pIC50 in experiment [3] was 7.15; in experiment [4] it was 7.12; in [5], 7.22; in experiment [2], 7.11. Also, the Activity in experiment [6] is given as 10%.
For the compound `CCCC[C@@H](C=O)NC(=O)[C@H](CC(C)C)NC(=O)[C@@H](CC(C)C)NC(=O)CC`, the pIC50 in experiment [1] is 7.05.
With `Cn1c2c(c(=O)n(Cc3ccc(Cl)cc3)c1=O)CN(Cc1cccc(C#N)c1)CC2`, the negative-log IC50 (pIC50) in experiment [2] was 7.85. Further, the INH in experiment [7] was 30 nM.
Take `Cc1cccc(CN2CCc3c(c(=O)n(Cc4ccc(C(F)(F)F)cc4)c(=O)n3CCCN)C2)c1`: the negative-log IC50 (pIC50) in [2] is 7.24.
`Nc1ncnc2c1c(-c1ccc(Oc3ccccc3)cc1)nn2[C@@H]1CCCN(C(=O)c2cn(CCOCCOCCOCCCc3cccc4c3C(=O)N(C3CCC(=O)NC3=O)C4=O)nn2)C1` (stereo partly drawn): the half-maximal degradation concentration (DC50) in experiment [8] came to 50 nM.
With `COc1cc(/C=C2\SC(=O)N(CCOCCC(=O)N[C@@H](C(=O)N3C[C@H](O)C[C@H]3C(=O)NCc3ccc(-c4scnc4C)cc3)C(C)(C)C)C2=O)ccc1Oc1ccc(C#N)cc1C(F)(F)F`, the Activity was 44% in [9], 44% in experiment [10] and 39% in [11].
For `C=C(F)C(=O)N1CCN(c2nc(OC[C@@H]3CCCN3CCCOCCC(=O)N[C@H](C(=O)N3C[C@H](O)C[C@H]3C(=O)NCc3ccc(-c4scnc4C)cc3)C(C)(C)C)nc3c2CCN(c2cccc4cccc(Cl)c24)C3)C[C@@H]1CC#N`, the DC50 in experiment [12] was determined as 250 nM.
Turning to `C#Cc1cccc(CN2CCC3=C(C2)C(=O)N(Cc2ccc(C)cc2)C2=NCCN23)c1`, the negative-log IC50 (pIC50) in [2] was 7.00.
Same read-out and setting: the result for `N#Cc1cccc(CN2CCC3=C(C2)C(=O)N(Cc2ccc(Cl)cc2)C2=NCCN23)c1` reads 8.13.
